From paper PMC5218480 (PLoS ONE, 2017) come the findings set out here.

The test system of this assay is MV-4-11 cells. Briefly: Gene expression microarray analysis (Affymetrix PrimeView) and GSEA. Type of assay: cell-based, human. Further details: RFU PODN (11730768_x_at) / Fold change /veh PODN (11730768_x_at) / RFU LINC00158 (11744669_a_at) / Fold change /veh LINC00158 (11744669_a_at) / RFU DUSP10 (11751237_a_at) / Fold change /veh DUSP10 (11751237_a_at) / RFU ID3 (11757404_x_at) / Fold change /veh ID3 (11757404_x_at) / RFU PLEKHG5 (11737974_s_at) / Fold change /veh PLEKHG5 (11737974_s_at) / RFU LRRC4B (11730491_at) / Fold change /veh LRRC4B (11730491_at) / RFU GIMAP4 (11747438_a_at) / Fold change /veh GIMAP4 (11747438_a_at) / RFU KRT8 (11758183_x_at) / Fold change /veh KRT8 (11758183_x_at) / RFU CNN1 (11734310_a_at) / Fold change /veh CNN1 (11734310_a_at) / RFU VPS37D (11726825_at) / Fold change /veh VPS37D (11726825_at) / RFU C10orf10 (11716522_x_at) / Fold change /veh C10orf10 (11716522_x_at) / RFU KIR2DL2 /// KIR2DL4 /// KIR2DL5A /// KIR2DL5B /// KIR2DS1 /// KIR2DS2 /// KIR2DS3 /// KIR2DS4 /// KIR3DL3 /// KIR3DL3 /// KIR3DS1 (11738374_at) / Fold change /veh KIR2DL2 /// KIR2DL4 /// KIR2DL5A /// KIR2DL5B /// KIR2DS1 /// KIR2DS2 /// KIR2DS3 /// KIR2DS4 /// KIR3DL3 /// KIR3DL3 /// KIR3DS1 (11738374_at) / RFU C1QL1 (11718748_at) / Fold change /veh C1QL1 (11718748_at) / RFU TMPRSS4 (11747572_a_at) / Fold change /veh TMPRSS4 (11747572_a_at) / RFU HAMP (11756126_x_at) / Fold change /veh HAMP (11756126_x_at) / RFU RNFT2 (11725882_a_at) / Fold change /veh RNFT2 (11725882_a_at) / RFU NR4A2 (11747474_a_at) / Fold change /veh NR4A2 (11747474_a_at) / RFU ABCC12 (11746883_a_at) / Fold change /veh ABCC12 (11746883_a_at) / RFU TMEM136 (11760407_x_at) / Fold change /veh TMEM136 (11760407_x_at) / RFU CLDN22 /// WWC2 (11732394_at) / Fold change /veh CLDN22 /// WWC2 (11732394_at) / RFU HLA-DPB1 (11760878_x_at) / Fold change /veh HLA-DPB1 (11760878_x_at) / RFU SPINT1 (11716480_a_at) / Fold change /veh SPINT1 (11716480_a_at) / RFU GAP43 (11754022_s_at) / Fold change /veh GAP43 (11754022_s_at) / RFU A4GNT (11735810_at) / Fold change /veh A4GNT (11735810_at) / RFU PRB3 (11715151_x_at) / Fold change /veh PRB3 (11715151_x_at) / RFU TUBB4B (11761932_at) / Fold change /veh TUBB4B (11761932_at) / RFU CAPN14 (11732068_a_at) / Fold change /veh CAPN14 (11732068_a_at) / RFU TMCC2 (11721928_a_at) / Fold change /veh TMCC2 (11721928_a_at) / RFU IRGQ (11745062_a_at) / Fold change /veh IRGQ (11745062_a_at) / RFU FAM174B (11720279_a_at) / Fold change /veh FAM174B (11720279_a_at) / RFU TMPRSS4 (11748680_a_at) / Fold change /veh TMPRSS4 (11748680_a_at) / RFU FAM212B (11763350_a_at) / Fold change /veh FAM212B (11763350_a_at) / RFU PLEKHG5 (11743358_a_at) / Fold change /veh PLEKHG5 (11743358_a_at) / RFU ZSCAN30 (11745921_a_at) / Fold change /veh ZSCAN30 (11745921_a_at) / RFU CMKLR1 (11741424_a_at) / Fold change /veh CMKLR1 (11741424_a_at) / RFU LOC101060620 /// MAPK8IP1 (11723275_at) / Fold change /veh LOC101060620 /// MAPK8IP1 (11723275_at) / RFU SPTSSB (11747773_x_at) / Fold change /veh SPTSSB (11747773_x_at) / RFU PRSS12 (11739890_at) / Fold change /veh PRSS12 (11739890_at) / RFU BIN1 (11741810_x_at) / Fold change /veh BIN1 (11741810_x_at) / RFU WNT11 (11732464_a_at) / Fold change /veh WNT11 (11732464_a_at) / RFU C10orf10 (11716521_a_at) / Fold change /veh C10orf10 (11716521_a_at) / RFU C5orf56 (11738089_at) / Fold change /veh C5orf56 (11738089_at) / RFU CYB561 (11721691_x_at) / Fold change /veh CYB561 (11721691_x_at) / RFU ANKRD19P (11752326_a_at) / Fold change /veh ANKRD19P (11752326_a_at) / RFU OR2T12 /// OR2T33 /// OR2T8 (11738714_s_at) / Fold change /veh OR2T12 /// OR2T33 /// OR2T8 (11738714_s_at) / RFU VCAN (11748164_a_at) / Fold change /veh VCAN (11748164_a_at) / RFU JSRP1 (11732532_at) / Fold change /veh JSRP1 (11732532_at) / RFU KRTAP10-11 (11738290_x_at) / Fold change /veh KRTAP10-11 (11738290_x_at) / RFU MYO3A (11730013_a_at) / Fold change /veh MYO3A (11730013_a_at) / RFU EBF3 (11725865_a_at) / Fold change /veh EBF3 (11725865_a_at) / RFU CAMK2N1 (11719241_x_at) / Fold change /veh CAMK2N1 (11719241_x_at) / RFU C5orf56 (11738088_a_at) / Fold change /veh C5orf56 (11738088_a_at) / RFU OLFML3 (11715873_a_at) / Fold change /veh OLFML3 (11715873_a_at) / RFU LOC100653217 /// NTM (11731650_a_at) / Fold change /veh LOC100653217 /// NTM (11731650_a_at) / RFU MAPK11 (11762145_a_at) / Fold change /veh MAPK11 (11762145_a_at) / RFU FIZ1 (11724087_x_at) / Fold change /veh FIZ1 (11724087_x_at) / RFU OASL (11726364_x_at) / Fold change /veh OASL (11726364_x_at) / RFU SOX15 (11748057_x_at) / Fold change /veh SOX15 (11748057_x_at) / RFU CD79A (11719716_a_at) / Fold change /veh CD79A (11719716_a_at) / RFU HIST1H1D (11736915_at) / Fold change /veh HIST1H1D (11736915_at) / RFU CASKIN2 (11723855_a_at) / Fold change /veh CASKIN2 (11723855_a_at) / RFU LOC730098 (11760151_x_at) / Fold change /veh LOC730098 (11760151_x_at) / RFU OR4N2 (11742367_at) / Fold change /veh OR4N2 (11742367_at) / RFU PRRT2 (11749266_a_at) / Fold change /veh PRRT2 (11749266_a_at) / RFU SNX32 (11753110_a_at) / Fold change /veh SNX32 (11753110_a_at) / RFU CDHR5 (11726645_a_at) / Fold change /veh CDHR5 (11726645_a_at) / RFU RCAN1 (11760418_a_at) / Fold change /veh RCAN1 (11760418_a_at) / RFU FAM167A (11723789_a_at) / Fold change /veh FAM167A (11723789_a_at) / RFU FAM26E (11764081_at) / Fold change /veh FAM26E (11764081_at) / RFU ISYNA1 (11749810_s_at) / Fold change /veh ISYNA1 (11749810_s_at) / RFU ACY1 (11761880_at) / Fold change /veh ACY1 (11761880_at) / RFU 11764098_at / Fold change /veh 11764098_at / RFU SAMD14 (11745864_x_at) / Fold change /veh SAMD14 (11745864_x_at) / RFU NPB (11741838_a_at) / Fold change /veh NPB (11741838_a_at) / RFU TMPRSS6 (11731388_a_at) / Fold change /veh TMPRSS6 (11731388_a_at) / RFU KRTAP10-2 (11738614_at) / Fold change /veh KRTAP10-2 (11738614_at) / RFU ARHGAP8 /// PRR5-ARHGAP8 (11727945_x_at) / Fold change /veh ARHGAP8 /// PRR5-ARHGAP8 (11727945_x_at) / RFU KRTAP5-7 /// NADSYN1 (11734609_at) / Fold change /veh KRTAP5-7 /// NADSYN1 (11734609_at) / RFU RASL12 (11751679_a_at) / Fold change /veh RASL12 (11751679_a_at) / RFU CDKN2B (11736163_a_at) / Fold change /veh CDKN2B (11736163_a_at) / RFU PRF1 (11729649_at) / Fold change /veh PRF1 (11729649_at) / RFU, ZNF638 /// ZNF638-IT1 / Fold change vs veh, ZNF638 /// ZNF638-IT1 / RFU, PANK3 / Fold change vs veh, PANK3 / RFU, SH3YL1 / Fold change vs veh, SH3YL1 / RFU, ZEB2 / Fold change vs veh, ZEB2 / RFU, NRIP1 / Fold change vs veh, NRIP1 / RFU, PTTG1IP / Fold change vs veh, PTTG1IP / RFU, CAPN2 / Fold change vs veh, CAPN2 / RFU, MED14 / Fold change vs veh, MED14 / RFU, SNORA58 / Fold change vs veh, SNORA58 / RFU, C1orf63 / Fold change vs veh, C1orf63 / RFU, LRRFIP1 / Fold change vs veh, LRRFIP1 / RFU, NDUFAF7 / Fold change vs veh, NDUFAF7 / RFU, SLC12A2 / Fold change vs veh, SLC12A2 / RFU, IBTK / Fold change vs veh, IBTK / RFU, ESF1 / Fold change vs veh, ESF1 / Fold change vs veh, TMEM50B / RFU, TAOK1 / Fold change vs veh, TAOK1 / RFU, ACBD3 / Fold change vs veh, ACBD3 / RFU, TMA16 / Fold change vs veh, TMA16 / RFU, RWDD3 / Fold change vs veh, RWDD3 / RFU, BCAT1 / Fold change vs veh, BCAT1 / RFU, EDEM3 / Fold change vs veh, EDEM3 / RFU, TMEM33 / Fold change vs veh, TMEM33 / RFU, WDR75 / Fold change vs veh, WDR75 / RFU, AHCTF1 / Fold change vs veh, AHCTF1 / RFU, TFRC / Fold change vs veh, TFRC / RFU, ZDHHC17 / Fold change vs veh, ZDHHC17 / RFU, NOM1 / Fold change vs veh, NOM1 / RFU, ARL8B / Fold change vs veh, ARL8B / RFU, ZBTB11 / Fold change vs veh, ZBTB11 / RFU, TAMM41 / Fold change vs veh, TAMM41 / RFU, KIAA1704 /// LOC100996395 / Fold change vs veh, KIAA1704 /// LOC100996395 / RFU, ING1 / Fold change vs veh, ING1 / RFU, TRMT61B / Fold change vs veh, TRMT61B / RFU, FUBP3 / Fold change vs veh, FUBP3 / RFU, TP53 / Fold change vs veh, TP53 / RFU, TNKS2 / Fold change vs veh, TNKS2 / RFU, ZFP14 / Fold change vs veh, ZFP14 / RFU, ACTR2 / Fold change vs veh, ACTR2 / RFU, PPP3R1 / Fold change vs veh, PPP3R1 / RFU, PIK3R1 / Fold change vs veh, PIK3R1 / RFU, HNRNPA1 / Fold change vs veh, HNRNPA1 / RFU, RNF170 / Fold change vs veh, RNF170 / RFU, ZNF28 / Fold change vs veh, ZNF28 / RFU, RNGTT / Fold change vs veh, RNGTT / RFU, OGT / Fold change vs veh, OGT / RFU, BRD1 / Fold change vs veh, BRD1 / RFU, MARS / Fold change vs veh, MARS / RFU, ZNF655 / Fold change vs veh, ZNF655 / RFU, FAHD1 / Fold change vs veh, FAHD1 / RFU, BDP1 / Fold change vs veh, BDP1 / RFU, LRRCC1 / Fold change vs veh, LRRCC1 / RFU, ARID1A / Fold change vs veh, ARID1A / RFU, ZNF146 / Fold change vs veh, ZNF146 / RFU, ZNF330 / Fold change vs veh, ZNF330 / RFU, GPN3 / Fold change vs veh, GPN3 / RFU, C9orf123 / Fold change vs veh, C9orf123 / RFU, N4BP2L2 / Fold change vs veh, N4BP2L2 / RFU, ARFIP1 / Fold change vs veh, ARFIP1 / RFU, FAM179B / Fold change vs veh, FAM179B / RFU, BCL10 / Fold change vs veh, BCL10 / RFU, UHRF1BP1L / Fold change vs veh, UHRF1BP1L / RFU, BET1 / Fold change vs veh, BET1 / RFU, CNOT2 / Fold change vs veh, CNOT2 / RFU, ZNF268 / Fold change vs veh, ZNF268 / Fold change vs veh, ZNF507 / RFU, DGCR2 / Fold change vs veh, DGCR2 / RFU, WDSUB1 / Fold change vs veh, WDSUB1 / Fold change vs veh, HSP90B1 /// MIR3652 / RFU, ADSS / Fold change vs veh, ADSS / RFU, GK / Fold change vs veh, GK / RFU, ZNF148 / Fold change vs veh, ZNF148 / RFU, TAF9 / Fold change vs veh, TAF9 / RFU, SLC1A5 / Fold change vs veh, SLC1A5 / RFU, SLMO2 / Fold change vs veh, SLMO2 / RFU, ABCC4 / Fold change vs veh, ABCC4 / RFU, LOC101060439 /// RAP1B / Fold change vs veh, LOC101060439 /// RAP1B / RFU, RFX7 / Fold change vs veh, RFX7 / RFU, GTPBP10 / Fold change vs veh, GTPBP10 / RFU, CNEP1R1 / Fold change vs veh, CNEP1R1 / RFU, BIVM-ERCC5 /// ERCC5 / Fold change vs veh, BIVM-ERCC5 /// ERCC5 / RFU, ILF3 / Fold change vs veh, ILF3 / RFU 11762660_at / Fold change /veh 11762660_at / RFU VCAN (11757783_s_at) / Fold change /veh VCAN (11757783_s_at) / RFU DDX43 (11728927_at) / Fold change /veh DDX43 (11728927_at) / RFU KRT8 (11758188_x_at) / Fold change /veh KRT8 (11758188_x_at) / RFU NKD1 (11759106_at) / Fold change /veh NKD1 (11759106_at) / RFU SRD5A1 (11742802_a_at) / Fold change /veh SRD5A1 (11742802_a_at) / RFU TPSAB1 /// TPSB2 (11721975_s_at) / Fold change /veh TPSAB1 /// TPSB2 (11721975_s_at) / RFU GSTM3 (11746129_a_at) / Fold change /veh GSTM3 (11746129_a_at) / RFU IL23R (11737362_x_at) / Fold change /veh IL23R (11737362_x_at) / RFU TMEM51 (11727254_a_at) / Fold change /veh TMEM51 (11727254_a_at) / RFU PIWIL2 (11732686_x_at) / Fold change /veh PIWIL2 (11732686_x_at) / RFU ORM1 (11744905_x_at) / Fold change /veh ORM1 (11744905_x_at) / RFU CCDC152 (11743942_at) / Fold change /veh CCDC152 (11743942_at) / RFU ECM1 (11717891_a_at) / Fold change /veh ECM1 (11717891_a_at) / RFU IL23R (11748794_a_at) / Fold change /veh IL23R (11748794_a_at) / RFU TNFAIP8L3 (11732012_x_at) / Fold change /veh TNFAIP8L3 (11732012_x_at) / RFU MBOAT4 (11741988_at) / Fold change /veh MBOAT4 (11741988_at) / RFU 11764193_at / Fold change /veh 11764193_at / RFU TMEM53 (11763286_at) / Fold change /veh TMEM53 (11763286_at) / RFU MAGEB2 (11727129_at) / Fold change /veh MAGEB2 (11727129_at) / RFU TMEM200A (11744735_a_at) / Fold change /veh TMEM200A (11744735_a_at) / RFU CCDC152 (11751479_a_at) / Fold change /veh CCDC152 (11751479_a_at) / RFU FAM211A (11726209_a_at) / Fold change /veh FAM211A (11726209_a_at) / RFU RGS16 (11746705_a_at) / Fold change /veh RGS16 (11746705_a_at) / RFU VCAN (11755009_s_at) / Fold change /veh VCAN (11755009_s_at) / RFU RHOB (11743442_s_at) / Fold change /veh RHOB (11743442_s_at) / RFU RGS16 (11720943_a_at) / Fold change /veh RGS16 (11720943_a_at) / RFU RGS16 (11720944_at) / Fold change /veh RGS16 (11720944_at) / RFU, VPS4B / Fold change vs veh, VPS4B / RFU, CREB1 / Fold change vs veh, CREB1 / RFU, DNAJC13 / Fold change vs veh, DNAJC13 / RFU, GNAQ / Fold change vs veh, GNAQ / RFU, CDK5R1 / Fold change vs veh, CDK5R1 / RFU, ZRANB3 / Fold change vs veh, ZRANB3 / RFU, CUL4A / Fold change vs veh, CUL4A / RFU, CCNY / Fold change vs veh, CCNY / RFU, UFL1 / Fold change vs veh, UFL1 / RFU, COG3 / Fold change vs veh, COG3 / RFU, DIAPH2 / Fold change vs veh, DIAPH2 / RFU, SKA2 / Fold change vs veh, SKA2 / RFU, AFF3 / Fold change vs veh, AFF3 / RFU, LMF1 / Fold change vs veh, LMF1 / RFU, IPO11 / Fold change vs veh, IPO11 / RFU, DFFB / Fold change vs veh, DFFB / RFU, FOXP1 / Fold change vs veh, FOXP1 / RFU, CARD8 / Fold change vs veh, CARD8 / RFU, STRN3 / Fold change vs veh, STRN3 / RFU, ADK / Fold change vs veh, ADK / RFU, RASSF2 / Fold change vs veh, RASSF2 / RFU, WIPF1 / Fold change vs veh, WIPF1 / RFU, LARP1B / Fold change vs veh, LARP1B / RFU, RASA1 / Fold change vs veh, RASA1 / RFU, RB1 / Fold change vs veh, RB1 / RFU, PPFIA1 / Fold change vs veh, PPFIA1 / RFU, MAT2A / Fold change vs veh, MAT2A / RFU, CCT5 / Fold change vs veh, CCT5 / RFU, WDR92 / Fold change vs veh, WDR92 / RFU, CUX1 / Fold change vs veh, CUX1 / RFU, TTC7A / Fold change vs veh, TTC7A / RFU, TMEM135 / Fold change vs veh, TMEM135 / RFU, DEPTOR / Fold change vs veh, DEPTOR / RFU, CPM / Fold change vs veh, CPM / RFU, DNAJB6 / Fold change vs veh, DNAJB6 / RFU, CACNA2D3 / Fold change vs veh, CACNA2D3 / RFU, DTX4 / Fold change vs veh, DTX4 / RFU, TFCP2 / Fold change vs veh, TFCP2 / RFU, GMCL1 /// GMCL1P1 / Fold change vs veh, GMCL1 /// GMCL1P1 / RFU, AEBP2 / Fold change vs veh, AEBP2 / RFU, SNHG1 /// SNORD22 /// SNORD25 /// SNORD26 /// SNORD27 /// SNORD28 /// SNORD29 /// SNORD31 / Fold change vs veh, SNHG1 /// SNORD22 /// SNORD25 /// SNORD26 /// SNORD27 /// SNORD28 /// SNORD29 /// SNORD31 / Fold change (Aza/veh), C12orf56 (ProbeSet 11735607_a_at) / Fold change (ACY-1035/veh), C12orf56 (ProbeSet 11735607_a_at) / Fold change (Aza/veh), FGFR1OP (ProbeSet 11751329_s_at) / Fold change (ACY-1035/veh), FGFR1OP (ProbeSet 11751329_s_at) / Fold change (Aza/veh), VPS36 (ProbeSet 11739960_a_at) / Fold change (ACY-1035/veh), VPS36 (ProbeSet 11739960_a_at) / RFU SYPL1 (11715823_x_at) / Fold change /veh SYPL1 (11715823_x_at) / RFU IGFBP7 (11715501_s_at) / Fold change /veh IGFBP7 (11715501_s_at) / RFU REEP3 (11722064_at) / Fold change /veh REEP3 (11722064_at) / RFU IGLL1 (11728026_x_at) / Fold change /veh IGLL1 (11728026_x_at): dose or concentration left out as unconfirmed. The settings on record: ProbeSet 11720270_a_at; LIST B.

In the case of `Nc1ccc(-c2cccs2)cc1NC(=O)c1ccc2c(c1)cc(C1CC1)n2CCN1CCOCC1` [ACY-1035], the “RFU, IBTK” value came out at 373.26 RFU.
